This note sets out measurements from ChEMBL document CHEMBL4715719, “Synthesis and biological properties of polyamine modified flavonoids as hepatocellular carcinoma inhibitors” (Eur J Med Chem, 2016).

The source made the active and inactive calls. No cut-off for these calls is given here.

For data set [1], the system named is SMMC-7721. The experiment in a line: Antiproliferative activity against human […] cells assessed as inhibition of cell proliferation at 30 uM measured after 48 hrs by MTT assay relative to control. The format is functional. (In general: Tetrazolium assays rely on reduction of a dye to a coloured formazan, in cell work by metabolically active cells.)
For data set [2], the system named is HepG2. The experiment in a line: Antiproliferative activity against human HepG2 cells assessed as inhibition of cell proliferation at 30 uM measured after 48 hrs by MTT assay relative to control. The class given is functional.
A short description of data set [3]: Cytotoxicity against human QSG7701 cells assessed as inhibition of cell proliferation at 30 uM measured after 48 hrs by MTT assay relative to control. The format is cell-based.
The nature of data set [4]: Cytotoxicity against human QSG7701 cells assessed as inhibition of cell proliferation at 100 uM measured after 48 hrs by MTT assay relative to control. The format is cell-based.
Data set [5] deals with HepG2. Kind of data set: Antiproliferative activity against human HepG2 cells assessed as inhibition of cell proliferation at 100 uM measured after 48 hrs by MTT assay relative to control. The format is functional.
Data set [6] relates to SMMC-7721. The experiment in a line: Antiproliferative activity against human […] cells assessed as inhibition of cell proliferation at 100 uM measured after 48 hrs by MTT assay relative to control. The format is functional.
A short description of data set [7]: Toxicity in Kunming mouse implanted with mouse H22 cells assessed as mouse mortality at 0.4 mg/kg, iv administered for 7 consecutive days starting from day 8 post inoculation and measured after 16 days. The class given is organism-based. The settings on record: in vivo, 192 h, time 8 day.
A short description of data set [8]: Toxicity in Kunming mouse implanted with mouse H22 cells assessed as change in body weight at 0.4 mg/kg, iv administered for 7 consecutive days starting from day 11 post inoculation and measured after 18 days (reference value: 5.2 %). The format is organism-based. The settings on record: in vivo, 192 h, time 8 day.
Data set [9] relates to HepG2. The experiment in a line: Antiproliferative activity against human HepG2 cells assessed as inhibition of cell proliferation at 1 uM measured after 48 hrs by MTT assay relative to control. The format is functional.
The nature of data set [10]: Toxicity in iv dosed Kunming mouse assessed as maximum tolerated dose. The format is organism-based. The settings on record: in vivo.
Data set [11] relates to SMMC-7721. Kind of data set: Antiproliferative activity against human […] cells assessed as inhibition of cell proliferation at 5 uM measured after 48 hrs by MTT assay relative to control. The format is functional.
Data set [12] concerns H22. The experiment in a line: Antimetastatic activity against mouse H22 cells implanted in Kunming mouse assessed as number of metastatic focus at 0.4 mg/kg, iv administered for 7 consecutive days starting from day 11 post inoculation and measured after 18 days (reference value: 5.73 +/- 14.6). Particulars: time 8 day. The class given is functional.
The nature of data set [13]: Toxicity in Kunming mouse implanted with mouse H22 cells assessed as change in mouse body weight at 0.4 mg/kg, iv administered for 7 consecutive days starting from day 8 post inoculation and measured after 16 days (reference value: 21 %). The class given is organism-based. Particulars: in vivo, 192 h, time 8 day.
Data set [14] deals with H22. The experiment in a line: Antimetastatic activity against mouse H22 cells implanted in Kunming mouse assessed as inhibition of metastasis at 0.4 mg/kg, iv administered for 7 consecutive days starting from day 11 post inoculation and measured after 18 days relative to control. The format is functional. Particulars: 192 h, time 8 day.
The nature of data set [15]: Cytotoxicity against human QSG7701 cells assessed as inhibition of cell proliferation at 1 uM measured after 48 hrs by MTT assay relative to control. The format is cell-based.
For data set [16], the system named is HepG2. Kind of data set: Antiproliferative activity against human HepG2 cells assessed as inhibition of cell proliferation at 5 uM measured after 48 hrs by MTT assay relative to control. The class given is functional.
Data set [17] can be described thus: Cytotoxicity against human QSG7701 cells assessed as inhibition of cell proliferation at 5 uM measured after 48 hrs by MTT assay relative to control. The format is cell-based.
The subject of data set [18] is SMMC-7721. Kind of data set: Antiproliferative activity against human […] cells assessed as inhibition of cell proliferation at 1 uM measured after 48 hrs by MTT assay relative to control. The class given is functional.
Data set [19] has as its system H22. The experiment in a line: Antitumor activity against mouse H22 cells implanted in Kunming mouse assessed as reduction in tumor weight at 0.4 mg/kg, iv administered for 7 consecutive days starting from day 8 post inoculation and measured after 16 days (reference value: 2.15 +/- 0.51 g). The format is functional. The settings on record: time 8 day.
The test system of data set [20] is H22. Kind of data set: Antitumor activity against mouse H22 cells implanted in Kunming mouse assessed as tumor growth inhibition at 0.4 mg/kg, iv administered for 7 consecutive days starting from day 8 post inoculation and measured after 16 days relative to control. The class given is functional. The settings on record: 192 h, time 8 day, read-out: TGI.
Data set [21] relates to Mus musculus. Kind of data set: Upregulation of phosphorylated p38 in Kunming mouse implanted with mouse H22 cells assessed as activation of p53 at 800 uM measured after 48 hrs by immunofluorescence analysis. The format is functional.
Data set [22] relates to Mus musculus. Kind of data set: Upregulation of phosphorylated JNK in Kunming mouse implanted with mouse H22 cells assessed as activation of p53 at 800 uM measured after 48 hrs by immunofluorescence analysis. The format is functional.
For data set [23], the system named is Mus musculus. The experiment in a line: Downregulation of Bcl-2 in Kunming mouse implanted with mouse H22 cells at 800 uM measured after 48 hrs by immunofluorescence analysis. The format is functional.
The subject of data set [24] is H22. Kind of data set: Antitumor activity against mouse H22 cells implanted in Kunming mouse assessed as reduction in tumor weight at 100 mg/kg, iv administered for 7 consecutive days starting from day 8 post inoculation and measured after 16 days (reference value: 2.15 +/- 0.51 g). The settings on record: time 8 day. The class given is functional.
A short description of data set [25]: Toxicity in Kunming mouse implanted with mouse H22 cells assessed as change in body weight at 100 mg/kg, iv administered for 7 consecutive days starting from day 11 post inoculation and measured after 18 days (reference value: 5.2 %). The class given is organism-based. Particulars: in vivo, 192 h, time 8 day.
Data set [26] in a line: Toxicity in Kunming mouse implanted with mouse H22 cells assessed as mouse mortality at 100 mg/kg, iv administered for 7 consecutive days starting from day 8 post inoculation and measured after 16 days. The class given is organism-based. Particulars: in vivo, 192 h, time 8 day.
In data set [27] the test system is HepG2. The experiment in a line: Induction of mitochondrial membrane potential loss in human HepG2 cells at 80 uM after 48 hrs by Rh123 staining based assay. The format is functional, cell-based.
Data set [28] deals with HepG2. Kind of data set: Induction of ROS generation in human HepG2 cells at 80 uM after 48 hrs by DCFH-DA staining based assay. The class given is functional, cell-based.
The test system of data set [29] is HepG2. Kind of data set: Induction of lysosomal impairment in human HepG2 cells at 80 uM after 48 hrs by Lyso-tracker Red staining based assay. The format is functional, cell-based.
A short description of data set [30]: Toxicity in Kunming mouse implanted with mouse H22 cells assessed as change in mouse body weight at 100 mg/kg, iv administered for 7 consecutive days starting from day 8 post inoculation and measured after 16 days (reference value: 21 %). The format is organism-based. Particulars: in vivo, 192 h, time 8 day.
For data set [31], the system named is HepG2. Kind of data set: Induction of apoptosis in human HepG2 cells assessed as activation of caspase 8 at 80 uM measured after 48 hrs by immunofluorescence assay. The class given is functional, cell-based.
The subject of data set [32] is HepG2. Kind of data set: Induction of apoptosis in human HepG2 cells assessed as activation of caspase 9 at 80 uM measured after 48 hrs by immunofluorescence assay. The class given is functional, cell-based.
Data set [33] concerns HepG2. Kind of data set: Induction of apoptosis in human HepG2 cells assessed as activation of caspase 3 at 80 uM measured after 48 hrs by immunofluorescence assay. The class given is functional, cell-based.
Data set [34] relates to H22. The experiment in a line: Antimetastatic activity against mouse H22 cells implanted in Kunming mouse assessed as inhibition of metastasis at 100 mg/kg, iv administered for 7 consecutive days starting from day 11 post inoculation and measured after 18 days relative to control. The format is functional. Particulars: 192 h, time 8 day.
Data set [35] has as its system H22. The experiment in a line: Antitumor activity against mouse H22 cells implanted in Kunming mouse assessed as tumor growth inhibition at 100 mg/kg, iv administered for 7 consecutive days starting from day 8 post inoculation and measured after 16 days relative to control. The format is functional. Particulars: 192 h, time 8 day, read-out: TGI.

One may read the inhibition as the share of the control response that was lost under treatment. Regarding `NCCCCNCC(=O)NCc1cccc2c(=O)cc(-c3cccc4ccccc34)oc12`, the inhibition at 30 µM with SMMC-7721 [1] and in the data set on HepG2 [2] was < 5% throughout. For the same molecule, the inhibition at 48 h, 30 µM in data set [3] is < 5%. Also, the inhibition at 48 h, 100 µM in [4] was determined as 10.6%. In addition, the inhibition at 100 µM amounted to 16.1% in the data set with HepG2 [5] and 39.8% with SMMC-7721 [6].
The term MTD denotes the highest dose tested that stayed within the study's limit of toxicity. With `O=C1c2c(O)ccc(O)c2C(=O)c2c(NCCNCCO)ccc(NCCNCCO)c21` [MITOXANTRONE], the Activity entry is “Non-Toxic” in data set [7]; -0.8% in data set [8]; 29.1 in the data set with H22 [12]; -6.6% in data set [13]; 0.57 g in the data set on H22 [19]. The inhibition at 1 µM in the data set with HepG2 [9] is 41.2%; in the data set on SMMC-7721 [18], 20.5%. Besides, the MTD in data set [10] came to 0.4 mg/kg. Moreover, the figures for the inhibition at 5 µM with SMMC-7721 [11] and in the data set on HepG2 [16] were 62.2% and 78.6%, respectively. Moreover, the inhibition in vivo at 0.4 mg/kg with H22 [14] worked out at 49.2%; in the data set with H22 [20], 73.4%. Moreover, the inhibition at 48 h, 1 µM in data set [15] was 75.8%. Further, in data set [17], the inhibition at 48 h, 5 µM is 82.5%.
For `CC(=O)Oc1ccccc1C(=O)O`, the result with Mus musculus [21], with Mus musculus [22] and with Mus musculus [23] was Active.
On to `NCCCCNCCCCNCC(=O)NCc1cccc2c(=O)cc(-c3cccc4ccccc34)oc12`, for which the inhibition at 30 µM with SMMC-7721 [1] was determined as 70.2%; with HepG2 [2], 62%. In [3], the inhibition at 48 h, 30 µM was found to be 46.7%. In addition, in [4], the inhibition at 48 h, 100 µM was 74.4%. Besides, the inhibition at 100 µM in the data set on HepG2 [5] was determined as 75.9%; in the data set with SMMC-7721 [6], 85.5%.
As for `NCCCCNCCCNCC(=O)NCc1cccc2c(=O)cc(-c3cccc4ccccc34)oc12`, the inhibition at 30 µM with SMMC-7721 [1] is 7.6%; with HepG2 [2] it was < 5%. Besides, the inhibition at 48 h, 30 µM in data set [3] is < 5%. Further, the inhibition at 48 h, 100 µM in [4] turned out to be 22.4%. Besides, the inhibition at 100 µM is 28.9% with HepG2 [5] and 32.5% in the data set on SMMC-7721 [6].
Take `CN(C)CCNCC(=O)NCc1cccc2c(=O)cc(-c3cccc4ccccc34)oc12`: the inhibition at 30 µM in the data set with SMMC-7721 [1] and with HepG2 [2] was < 5% in each case. Besides, the inhibition at 48 h, 30 µM in [3] was < 5%. The inhibition at 48 h, 100 µM in data set [4] was found to be 17.9%. The inhibition at 100 µM with HepG2 [5] was 7.5%; in the data set with SMMC-7721 [6], 16.6%.
Turning to `CCCCNCC(=O)NCc1cccc2c(=O)cc(-c3cccc4ccccc34)oc12`, the inhibition at 30 µM in the data set on SMMC-7721 [1] was 14.6%; in the data set on HepG2 [2], 6%. Also, the inhibition at 48 h, 30 µM in [3] was found to be 19.6%. Also, in [4], the inhibition at 48 h, 100 µM came out at 41.7%. Also, the inhibition at 100 µM in the data set on HepG2 [5] amounted to 21.6%; in the data set on SMMC-7721 [6], 28.4%.
Regarding `O=c1c(O)c(-c2ccc(O)c(O)c2)oc2cc(O)cc(O)c12` [QUERCETIN], the Activity with H22 [24] is given as 1.3 g; in [25], 2.1%; in data set [26], “Non-Toxic”; in data set [30], 6.3%. Moreover, the outcome in the data set on HepG2 [27], in the data set on HepG2 [28], in the data set with HepG2 [29], in the data set with HepG2 [31], with HepG2 [32] and in the data set on HepG2 [33] was Active. The figures for the inhibition at 30 µM with SMMC-7721 [1] and in the data set with HepG2 [2] were 29.5% and 33.2%, respectively. The inhibition at 48 h, 30 µM in data set [3] is < 5%. For the same molecule, the values for the inhibition in vivo at 100 mg/kg in the data set on H22 [34] and in the data set with H22 [35] were 34.1% and 39.7%, respectively. For the same molecule, in data set [4], the inhibition at 48 h, 100 µM came to 36%. Moreover, the values for the inhibition at 100 µM in the data set with HepG2 [5] and in the data set with SMMC-7721 [6] were 56.3% and 62.9%, respectively.
